Starred links: 1 amine or outer side, 2 acyl side, 3 side chain; linkers in the order of their positions; H or OH if unused. Positions of bridges follow the written chain, without caps; N, C: chain ends. Non-standard residues stand in square brackets, D forms with d. Residues, ends and D or L forms follow the SMILES beside them. ξ: configuration not given here. *: point of attachment. X5 = Cn1nc(C(=O)Nc2ccc(-c3ccc(C[C@H](N[*:1])C(=O)[*:2])cc3)cc2)c2ccccc21; Bip(4'-NH) = O=C([C@H](Cc1ccc(-c2ccc(N[*:3])cc2)cc1)N[*:1])[*:2]; Indazole3carbonyl(1-CH2COOH) = O=C(O)Cn1nc(C(=O)*)c2ccccc21; X54 = N=C(NCCC[C@@H](N[*:1])C(=O)[*:2])NCc1cccc(-n2ccnc2)c1; Bip(4'-COOH) = N[C@@H](Cc1ccc(-c2ccc(C(=O)O)cc2)cc1)C(=O)O; Bip(4'-NHAc) = CC(=O)Nc1ccc(-c2ccc(C[C@H](N)C(=O)O)cc2)cc1; X19 = N=C(NCCC[C@@H](N[*:1])C(=O)[*:2])NCc1ccc2ccccc2c1; X66 = N=C(NCCC[C@@H](N[*:1])C(=O)[*:2])NCc1ccc(F)c(F)c1; Ala(imidazol-2-yl) = N[C@@H](Cc1ncc[nH]1)C(=O)O; dArg(ω-Bn) = N=C(NCCC[C@@H](N)C(=O)O)NCc1ccccc1; Ala(morpholin-4-yl) = N[C@@H](CN1CCOCC1)C(=O)O; Phe(3-CONH2) = NC(=O)c1cccc(C[C@H](N)C(=O)O)c1; Bip = N[C@@H](Cc1ccc(-c2ccccc2)cc1)C(=O)O; 2Pal = N[C@@H](Cc1ccccn1)C(=O)O; 2Thi = N[C@@H](Cc1cccs1)C(=O)O; Cha = N[C@@H](CC1CCCCC1)C(=O)O; Chg = N[C@H](C(=O)O)C1CCCCC1; ξAze = O=C(O)C1CCN1; Sar = CNCC(=O)O
target: TNFα (Homo sapiens, UniProt P01375); assay: TNF-Induced HEK-Blue Assay; format: cell-based; conditions: not given
Sequence (P01375 77-233 limits assumed): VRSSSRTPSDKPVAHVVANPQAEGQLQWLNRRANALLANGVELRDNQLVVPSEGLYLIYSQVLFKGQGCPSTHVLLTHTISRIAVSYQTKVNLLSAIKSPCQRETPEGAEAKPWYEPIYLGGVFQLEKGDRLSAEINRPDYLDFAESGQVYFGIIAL

SMILES	IC50 [nM]
CC(=O)Nc1ccc(-c2ccc(C[C@@H]3NC(=O)[C@H](Cc4ccc(-c5ccccc5)cc4)NC(=O)[C@H](CN4CCOCC4)NC(=O)CSC[C@@H](C(=O)NCC(N)=O)NC(=O)[C@H](CC(C)C)NC(=O)[C@H](Cc4cccc(C(N)=O)c4)NC(=O)[C@H](C4CCCCC4)NC(=O)[C@@H]4CCCN4C(=O)[C@H](C(C)C)NC(=O)[C@@H](CCCNC(=N)N)NC(=O)[C@H](CC(=O)O)NC(=O)[C@H](Cc4ccc(O)cc4)NC(=O)CN(C)C3=O)cc2)cc1 [Example 460] ({CH2CO}-[Ala(morpholin-4-yl)][Bip][Bip(4'-NHAc)][Sar]YD[dR]VP[Chg][Phe(3-CONH2)]LCG-NH2; thioether N-13)	< 50
CC(C)C[C@@H]1NC(=O)[C@H](CCCNC(=N)N)NC(=O)[C@H](C(C)C)NC(=O)[C@@H]2CCCN2C(=O)[C@H](C(C)C)NC(=O)[C@@H](CCCNC(=N)NCc2ccccc2)NC(=O)[C@H](CC(=O)O)NC(=O)[C@@H]2CCCN2C(=O)CN(C)C(=O)[C@H](Cc2ccc(-c3ccc(NC(=O)c4nn(CC(=O)O)c5ccccc45)cc3)cc2)NC(=O)[C@H](Cc2ccc(-c3ccccc3)cc2)NC(=O)[C@H](CN2CCOCC2)NC(=O)CSC[C@@H](C(=O)NCC(N)=O)NC1=O [Example 467] ({CH2CO}-[Ala(morpholin-4-yl)][Bip][Bip(4'-NH)](Indazole3carbonyl(1-CH2COOH))[Sar]PD[dArg(ω-Bn)]VPVRLCG-NH2; thioether N-13)	< 50
CC(C)C[C@@H]1NC(=O)[C@H](CCCNC(=N)N)NC(=O)[C@H](C(C)C)NC(=O)[C@@H]2CCCN2C(=O)[C@H](C(C)C)NC(=O)[C@@H](CCCNC(=N)NCc2ccc3ccccc3c2)NC(=O)[C@H](CC(=O)O)NC(=O)[C@@H]2CCCN2C(=O)CN(C)C(=O)[C@H](Cc2ccc(-c3ccc(NC(=O)c4nn(CC(=O)O)c5ccccc45)cc3)cc2)NC(=O)[C@H](Cc2ccc(-c3ccccc3)cc2)NC(=O)[C@H](CN2CCOCC2)NC(=O)CSC[C@@H](C(=O)NCC(N)=O)NC1=O [Example 468] ({CH2CO}-[Ala(morpholin-4-yl)][Bip][Bip(4'-NH)](Indazole3carbonyl(1-CH2COOH))[Sar]PD[X19]VPVRLCG-NH2; thioether N-13)	< 50
CC(C)C[C@@H]1NC(=O)[C@H](CCCNC(=N)N)NC(=O)[C@H](C(C)C)NC(=O)[C@@H]2CCCN2C(=O)[C@H](C(C)C)NC(=O)[C@@H](CCCNC(=N)NCc2ccc(F)c(F)c2)NC(=O)[C@H](CC(=O)O)NC(=O)[C@@H]2CCCN2C(=O)CN(C)C(=O)[C@H](Cc2ccc(-c3ccc(NC(=O)c4nn(CC(=O)O)c5ccccc45)cc3)cc2)NC(=O)[C@H](Cc2ccc(-c3ccccc3)cc2)NC(=O)[C@H](CN2CCOCC2)NC(=O)CSC[C@@H](C(=O)NCC(N)=O)NC1=O [Example 469] ({CH2CO}-[Ala(morpholin-4-yl)][Bip][Bip(4'-NH)](Indazole3carbonyl(1-CH2COOH))[Sar]PD[X66]VPVRLCG-NH2; thioether N-13)	< 50
CC(C)C[C@@H]1NC(=O)[C@H](CCCNC(=N)N)NC(=O)[C@H](C(C)C)NC(=O)[C@@H]2CCCN2C(=O)[C@H](C(C)C)NC(=O)[C@@H](CCCNC(=N)NCc2cccc(-n3ccnc3)c2)NC(=O)[C@H](CC(=O)O)NC(=O)[C@@H]2CCCN2C(=O)CN(C)C(=O)[C@H](Cc2ccc(-c3ccc(NC(=O)c4nn(CC(=O)O)c5ccccc45)cc3)cc2)NC(=O)[C@H](Cc2ccc(-c3ccccc3)cc2)NC(=O)[C@H](CN2CCOCC2)NC(=O)CSC[C@@H](C(=O)NCC(N)=O)NC1=O [Example 470] ({CH2CO}-[Ala(morpholin-4-yl)][Bip][Bip(4'-NH)](Indazole3carbonyl(1-CH2COOH))[Sar]PD[X54]VPVRLCG-NH2; thioether N-13)	< 50

same assay, conditions: HEK-Blue-CD40L cells, NF-kB-driven secreted alkaline phosphatase reporter; TNFα 0.5 ng/ml; 18 h; read-out: TNF induced HEK-Blue assay IC50 value

SMILES	IC50 [nM]
CC(=O)Nc1ccc(-c2ccc(C[C@@H]3NC(=O)[C@H](Cc4ccc(-c5ccc(C(=O)O)cc5)cc4)NC(=O)[C@H](CN4CCOCC4)NC(=O)CSC[C@@H](C(=O)NCC(N)=O)NC(=O)[C@H](CC(C)C)NC(=O)[C@H](Cc4cccc(C(N)=O)c4)NC(=O)[C@H](C(C)C)NC(=O)[C@@H]4CCCN4C(=O)[C@H](C(C)C)NC(=O)[C@@H](CCCNC(=N)N)NC(=O)[C@H](CC(=O)O)NC(=O)[C@H](Cc4ccc(O)cc4)NC(=O)CN(C)C3=O)cc2)cc1 [Example 457] ({CH2CO}-[Ala(morpholin-4-yl)][Bip(4'-COOH)][Bip(4'-NHAc)][Sar]YD[dR]VPV[Phe(3-CONH2)]LCG-NH2; thioether N-13)	< 50
CC(=O)Nc1ccc(-c2ccc(C[C@@H]3NC(=O)[C@H](Cc4ccc(-c5ccc(C(=O)O)cc5)cc4)NC(=O)[C@H](CN4CCOCC4)NC(=O)CSC[C@@H](C(=O)NCC(N)=O)NC(=O)[C@H](CC(C)C)NC(=O)[C@H](Cc4cccc(C(N)=O)c4)NC(=O)[C@H](C(C)C)NC(=O)[C@@H]4CCCN4C(=O)[C@H](C(C)C)NC(=O)[C@@H](CCCNC(=N)N)NC(=O)[C@H](CC(=O)O)NC(=O)[C@H](Cc4ccccc4)NC(=O)CN(C)C3=O)cc2)cc1 [Example 458] ({CH2CO}-[Ala(morpholin-4-yl)][Bip(4'-COOH)][Bip(4'-NHAc)][Sar]FD[dR]VPV[Phe(3-CONH2)]LCG-NH2; thioether N-13)	< 50
CC(C)C[C@@H]1NC(=O)[C@H](CCCNC(=N)N)NC(=O)[C@H](C(C)C)NC(=O)[C@@H]2CCCN2C(=O)[C@H](C(C)C)NC(=O)[C@@H](CCCNC(=N)NCc2ccccc2)NC(=O)[C@H](CC(=O)O)NC(=O)[C@@H]2CCCN2C(=O)CN(C)C(=O)[C@H](Cc2ccc(-c3ccc(NC(=O)c4nn(C)c5ccccc45)cc3)cc2)NC(=O)[C@H](Cc2ccc(-c3ccccc3)cc2)NC(=O)[C@H](CN2CCOCC2)NC(=O)CSC[C@@H](C(=O)NCC(N)=O)NC1=O [Example 471] ({CH2CO}-[Ala(morpholin-4-yl)][Bip][X5][Sar]PD[dArg(ω-Bn)]VPVRLCG-NH2; thioether N-13)	< 50
CC(C)C[C@@H]1NC(=O)[C@H](CCCNC(=N)N)NC(=O)[C@H](C(C)C)NC(=O)[C@@H]2CCCN2C(=O)[C@H](C(C)C)NC(=O)[C@@H](CCCNC(=N)NCc2ccc3ccccc3c2)NC(=O)[C@H](CC(=O)O)NC(=O)[C@@H]2CCCN2C(=O)CN(C)C(=O)[C@H](Cc2ccc(-c3ccc(NC(=O)c4nn(C)c5ccccc45)cc3)cc2)NC(=O)[C@H](Cc2ccc(-c3ccccc3)cc2)NC(=O)[C@H](CN2CCOCC2)NC(=O)CSC[C@@H](C(=O)NCC(N)=O)NC1=O [Example 472] ({CH2CO}-[Ala(morpholin-4-yl)][Bip][X5][Sar]PD[X19]VPVRLCG-NH2; thioether N-13)	50 to 200

Continued, values first:

IC50 [nM]	SMILES
50 to 200	CC(=O)Nc1ccc(-c2ccc(C[C@@H]3NC(=O)[C@H](Cc4ccc(-c5ccccc5)cc4)NC(=O)[C@H](CN4CCOCC4)NC(=O)CSC[C@@H](C(=O)NCC(N)=O)NC(=O)[C@H](CC(C)C)NC(=O)[C@H](Cc4cccc(C(N)=O)c4)NC(=O)[C@H](C4CCCCC4)NC(=O)[C@@H]4CCCN4C(=O)[C@H](C(C)C)NC(=O)[C@@H](CCCNC(=N)N)NC(=O)[C@H](CC(=O)O)NC(=O)[C@H](Cc4ccccc4)NC(=O)CN(C)C3=O)cc2)cc1 [Example 459] ({CH2CO}-[Ala(morpholin-4-yl)][Bip][Bip(4'-NHAc)][Sar]FD[dR]VP[Chg][Phe(3-CONH2)]LCG-NH2; thioether N-13)
< 50	CC(=O)Nc1ccc(-c2ccc(C[C@@H]3NC(=O)[C@H](Cc4ccc(-c5ccccc5)cc4)NC(=O)[C@H](CN4CCOCC4)NC(=O)CSC[C@@H](C(=O)NCC(N)=O)NC(=O)[C@H](CC(C)C)NC(=O)[C@H](Cc4ncc[nH]4)NC(=O)[C@H](C(C)C)NC(=O)[C@@H]4CCCN4C(=O)[C@H](C(C)C)NC(=O)[C@@H](CCCNC(=N)N)NC(=O)[C@H](CC(=O)O)NC(=O)[C@H](Cc4cccs4)NC(=O)CN(C)C3=O)cc2)cc1 [Example 461] ({CH2CO}-[Ala(morpholin-4-yl)][Bip][Bip(4'-NHAc)][Sar][2Thi]D[dR]VPV[Ala(imidazol-2-yl)]LCG-NH2; thioether N-13)
< 50	CC(=O)Nc1ccc(-c2ccc(C[C@@H]3NC(=O)[C@H](Cc4ccc(-c5ccc(C(=O)O)cc5)cc4)NC(=O)[C@H](CN4CCOCC4)NC(=O)CSC[C@@H](C(=O)NCC(N)=O)NC(=O)[C@H](CC(C)C)NC(=O)[C@H](Cc4ncc[nH]4)NC(=O)[C@H](C(C)C)NC(=O)[C@@H]4CCCN4C(=O)[C@H](C(C)C)NC(=O)[C@@H](CCCNC(=N)N)NC(=O)[C@H](CC(=O)O)NC(=O)[C@H](Cc4cccs4)NC(=O)CN(C)C3=O)cc2)cc1 [Example 462] ({CH2CO}-[Ala(morpholin-4-yl)][Bip(4'-COOH)][Bip(4'-NHAc)][Sar][2Thi]D[dR]VPV[Ala(imidazol-2-yl)]LCG-NH2; thioether N-13)
50 to 200	CC(=O)Nc1ccc(-c2ccc(C[C@@H]3NC(=O)[C@H](Cc4ccc(-c5ccccc5)cc4)NC(=O)[C@H](CN4CCOCC4)NC(=O)CSC[C@@H](C(=O)NCC(N)=O)NC(=O)[C@H](CC(C)C)NC(=O)[C@H](Cc4ncc[nH]4)NC(=O)[C@H](C4CCCCC4)NC(=O)[C@@H]4CCCN4C(=O)[C@H](C(C)C)NC(=O)[C@@H](CCCNC(=N)N)NC(=O)[C@H](CC(=O)O)NC(=O)[C@H](Cc4cccs4)NC(=O)CN(C)C3=O)cc2)cc1 [Example 463] ({CH2CO}-[Ala(morpholin-4-yl)][Bip][Bip(4'-NHAc)][Sar][2Thi]D[dR]VP[Chg][Ala(imidazol-2-yl)]LCG-NH2; thioether N-13)
< 50	CC[C@H](C)[C@@H]1NC(=O)[C@@H]2CCCN2C(=O)[C@H](C(C)C)NC(=O)[C@@H](CCCNC(=N)N)NC(=O)[C@H](CC(=O)O)NC(=O)[C@H](Cc2ccccn2)NC(=O)CN(C)C(=O)[C@H](Cc2ccc(-c3ccc(NC(C)=O)cc3)cc2)NC(=O)[C@H](Cc2ccc(-c3ccccc3)cc2)NC(=O)[C@H](CN2CCOCC2)NC(=O)CSC[C@@H](C(=O)NCC(N)=O)NC(=O)[C@H](CC(C)C)NC(=O)[C@H](Cc2ncc[nH]2)NC1=O [Example 464] ({CH2CO}-[Ala(morpholin-4-yl)][Bip][Bip(4'-NHAc)][Sar][2Pal]D[dR]VPI[Ala(imidazol-2-yl)]LCG-NH2; thioether N-13)
< 50	CC(=O)Nc1ccc(-c2ccc(C[C@@H]3NC(=O)[C@H](Cc4ccc(-c5ccccc5)cc4)NC(=O)[C@H](CC4CCCCC4)NC(=O)CSC[C@@H](C(=O)NCC(N)=O)NC(=O)[C@H](CC(C)C)NC(=O)[C@H](Cc4ncc[nH]4)NC(=O)[C@H](C(C)C)NC(=O)C4CCN4C(=O)[C@H](C(C)C)NC(=O)[C@@H](CCCNC(=N)N)NC(=O)[C@H](CC(=O)O)NC(=O)[C@@H]4CCCN4C(=O)CN(C)C3=O)cc2)cc1 (stereo partly drawn) [Example 466] ({CH2CO}-[Cha][Bip][Bip(4'-NHAc)][Sar]PD[dR]V[ξAze]V[Ala(imidazol-2-yl)]LCG-NH2; thioether N-13)
